Results taken from patent US20210198204A1, “PRODRUGS OF KALLIKREIN INHIBITORS” (BioCryst Pharmaceuticals, Inc., priority 2016, published 2021).

Experiment: Plasma pharmacokinetics of the parent compound after a single oral dose of prodrug
Format: in vivo
Conditions: single oral dose 10 mg/kg, fasted male Sprague Dawley rats; plasma analyzed for the parent compound; study duration 8 h
Description: Plasma pharmacokinetics of compounds was determined using three male Sprague Dawley rats following a single oral dose administration. All animals were placed in a rat metabolic cage, isolated, and fasted approximately 15 hours prior to dosing. Identifying markers were placed on each animal. Each animal was weighed prior to dose administration. Animals were administered orally with a solution formulation of test compound either in water or a combination of water/propylene glycol, at a dose of 10 mg/kg. Gavage needles were attached to syringes and filled with appropriate amount of test article to be dosed. Blood samples (approximately 500 μL) were collected from three rats at pre-dose (time 0), 0.5, 1, 2, 4, 8, 12 and 24 hr, respectively, depending on study duration. Samples were collected into labeled micro centrifuge tubes containing (heparin solution) as an anticoagulant. Plasma was immediately harvested from the blood by centrifugation at 14,000 rpm for 3 min at 4° C., and stored below −70° C. until bioanalysis. Individual plasma samples were analyzed for the parent compound, 3-[2-(4-carbamimidoyl-phenylcarbamoyl)-5-methoxy-4-vinyl-phenyl]-6-(cyclopropylmethyl-carbamoyl)-pyridine-2-carboxylic acid. As shown in Table-1, the test compounds yielded varying degrees of exposure to the parent compound. The test compounds generally provided for improved bioavailability of the parent compound as compared to dosing of the parent compound in aqueous solutions.

SMILES | AUC0-last hour (area under the curve)
C=Cc1cc(C(=O)Nc2ccc(C(=N)NC(=O)OCCCCCC)cc2)c(-c2ccc(C(=O)NCC3CC3)nc2C(=O)OC(C)OC(=O)N[C@H](C(=O)OCC)[C@@H](C)CC)cc1OC (stereo partly drawn) [Compound 91d, 1-((((2S,3S)-1-ethoxy-3-methyl-1-oxopentan-2-yl)carbamoyl)oxy)ethyl 6-((cyclopropylmethyl)carbamoyl)-3-(2-((4-(N-((hexyloxy)carbonyl)carbamimidoyl)phenyl)carbamoyl)-5-methoxy-4-vinylphenyl)picolinate] | A (A = 0-1,000 ng/mL)
C=Cc1cc(C(=O)Nc2ccc(C(=N)NC(=O)OC[C@H]3NC[C@H](O)[C@@H]3O)cc2)c(-c2ccc(C(=O)NCC3CC3)nc2C(=O)OC(C)OC(=O)OC(C)C)cc1OC (stereo partly drawn) [Compound 99e, 1-((isopropoxycarbonyl)oxy)ethyl 6-((cyclopropylmethyl)carbamoyl)-3-(2-((4-(N-((((2R,3R,4S)-3,4-dihydroxypyrrolidin-2-yl)methoxy)carbonyl)carbamimidoyl)phenyl)carbamoyl)-5-methoxy-4-vinylphenyl)picolinate] | A (A = 0-1,000 ng/mL)
C=Cc1cc(C(=O)Nc2ccc(C(=N)NC(=O)OCCCCCC)cc2)c(-c2ccc(C(=O)NCC3CC3)nc2C(=O)OC(C)OC(=O)NC(C)C)cc1OC (stereo not drawn) [Compound 81d, 1-((isopropylcarbamoyl)oxy)ethyl 6-((cyclopropylmethyl)carbamoyl)-3-(2-((4-(N-((hexyloxy)carbonyl)carbamimidoyl)phenyl)carbamoyl)-5-methoxy-4-vinylphenyl)picolinate] | A (A = 0-1,000 ng/mL)
C=Cc1cc(C(=O)Nc2ccc(C(=N)NC(=O)OCCOC(=O)[C@@H](N)C(C)C)cc2)c(-c2ccc(C(=O)NCC3CC3)nc2C(=O)OC(C)OC(=O)C(C)C)cc1OC (stereo partly drawn) [Compound 101e, 1-(isobutyryloxy)ethyl 3-(2-((4-(N-((2-(((S)-2-amino-3-methylbutanoyl)oxy)ethoxy)carbonyl)carbamimidoyl)phenyl)carbamoyl)-5-methoxy-4-vinylphenyl)-6-((cyclopropylmethyl)carbamoyl)picolinate] | A (A = 0-1,000 ng/mL)
C=Cc1cc(C(=O)Nc2ccc(C(=N)NC(=O)OC(C)OC(C)=O)cc2)c(-c2ccc(C(=O)NCC3CC3)nc2C(=O)OC(C)OC(=O)OC(C)C)cc1OC (stereo not drawn) [Compound 47a, 1-((isopropoxycarbonyl)oxy)ethyl 3-(2-((4-(N-((1-acetoxyethoxy)carbonyl)carbamimidoyl)phenyl)carbamoyl)-5-methoxy-4-vinylphenyl)-6-((cyclopropylmethyl)carbamoyl) picolinate] | B (B = 1,001-10,000 ng/mL)
C=Cc1cc(C(=O)Nc2ccc(C(=N)NC(=O)OCC)cc2)c(-c2ccc(C(=O)NCC3CC3)nc2C(=O)OC(C)OC(=O)C(C)C)cc1OC (stereo not drawn) [Compound 42a, 1-(isobutyryloxy)ethyl 6-((cyclopropylmethyl)carbamoyl)-3-(2-((4-(N-(ethoxycarbonyl)carbamimidoyl)phenyl)carbamoyl)-5-methoxy-4-vinylphenyl)picolinate] | C (C >10,000 ng/mL)
C=Cc1cc(C(=O)Nc2ccc(C(=N)NC(=O)OCC3COC(C)(C)O3)cc2)c(-c2ccc(C(=O)NCC3CC3)nc2C(=O)OC(C)OC(=O)OC(C)C)cc1OC (stereo not drawn) [Compound 77c, 1-((isopropoxycarbonyl)oxy)ethyl 6-((cyclopropylmethyl)carbamoyl)-3-(2-((4-(N-(((2,2-dimethyl-1,3-dioxolan-4-yl)methoxy)carbonyl)carbamimidoyl)phenyl)carbamoyl)-5-methoxy-4-vinylphenyl)picolinate] | B (B = 1,001-10,000 ng/mL)
C=Cc1cc(C(=O)Nc2ccc(C(=N)NC(=O)OCCCCCC)cc2)c(-c2ccc(C(=O)NCC3CC3)nc2C(=O)OC(C)OC(=O)OC(C)C)cc1OC (stereo not drawn) [Compound 39a, 1-((isopropoxycarbonyl)oxy)ethyl 6-((cyclopropylmethyl)carbamoyl)-3-(2-((4-(N-((hexyloxy)carbonyl)carbamimidoyl)phenyl)carbamoyl)-5-methoxy-4-vinylphenyl)picolinate] | C (C >10,000 ng/mL)
C=Cc1cc(C(=O)Nc2ccc(C(=N)NC(=O)OCCC(=O)OC(C)(C)C)cc2)c(-c2ccc(C(=O)NCC3CC3)nc2C(=O)OC(C)OC(=O)OC(C)C)cc1OC (stereo not drawn) [Compound 60c, 1-((isopropoxycarbonyl)oxy)ethyl 3-(2-((4-(N-((3-(tert-butoxy)-3-oxopropoxy)carbonyl)carbamimidoyl)phenyl)carbamoyl)-5-methoxy-4-vinylphenyl)-6-((cyclopropylmethyl)carbamoyl)picolinate] | B (B = 1,001-10,000 ng/mL)
C=Cc1cc(C(=O)Nc2ccc(-c3noc(=O)[nH]3)cc2)c(-c2ccc(C(=O)NCC3CC3)nc2C(=O)OC(C)OC(=O)OC(C)C)cc1OC (stereo not drawn) [Compound 52b, 1-((isopropoxycarbonyl)oxy)ethyl 6-((cyclopropylmethyl)carbamoyl)-3-(5-methoxy-2-((4-(5-oxo-4,5-dihydro-1,2,4-oxadiazol-3-yl)phenyl)carbamoyl)-4-vinylphenyl)picolinate] | A (A = 0-1,000 ng/mL)
C=Cc1cc(C(=O)Nc2ccc(C(=N)NC(=O)OC(C)C)cc2)c(-c2ccc(C(=O)NCC3CC3)nc2C(=O)OC(C)OC(=O)OC(C)C)cc1OC (stereo not drawn) [Compound 63c, 1-((isopropoxycarbonyl)oxy)ethyl 6-((cyclopropylmethyl)carbamoyl)-3-(2-((4-(N-(isopropoxycarbonyl)carbamimidoyl)phenyl)carbamoyl)-5-methoxy-4-vinylphenyl)picolinate] | C (C >10,000 ng/mL)
C=Cc1cc(C(=O)Nc2ccc(C(=N)NC(=O)OCc3oc(=O)oc3C)cc2)c(-c2ccc(C(=O)NCC3CC3)nc2C(=O)OCOC(=O)[C@@H](N)C(C)C)cc1OC [Compound 118c, (S)-((2-amino-3-methylbutanoyl)oxy)methyl 6-((cyclopropylmethyl)carbamoyl)-3-(5-methoxy-2-((4-(N-(((5-methyl-2-oxo-1,3-dioxol-4-yl)methoxy)carbonyl)carbamimidoyl)phenyl)carbamoyl)-4-vinylphenyl)picolinate] | A (A = 0-1,000 ng/mL)
C=Cc1cc(C(=O)Nc2ccc(C(=N)NC(=O)OCCCCCC)cc2)c(-c2ccc(C(=O)NCC3CC3)nc2C(=O)OC(OC(=O)C(C)(C)C)C(C)C)cc1OC (stereo not drawn) [Compound 57a, 2-methyl-1-(pivaloyloxy)propyl 6-((cyclopropylmethyl)carbamoyl)-3-(2-((4-(N-((hexyloxy)carbonyl)carbamimidoyl)phenyl)carbamoyl)-5-methoxy-4-vinylphenyl)picolinate] | B (B = 1,001-10,000 ng/mL)
C=Cc1cc(C(=O)Nc2ccc(C(=N)NC(=O)OC(C)COC(=O)CCCC[C@H]3SCC4NC(=O)NC43)cc2)c(-c2ccc(C(=O)NCC3CC3)nc2C(=O)OC(C)OC(=O)OC(C)C)cc1OC (stereo partly drawn) [Compound 104b, 1-((isopropoxycarbonyl)oxy)ethyl 6-((cyclopropylmethyl)carbamoyl)-3-(5-methoxy-2-((4-(N-(((1-((5-((4R)-2-oxohexahydro-1H-thieno[3,4-d]imidazol-4-yl)pentanoyl)oxy)propan-2-yl)oxy)carbonyl)carbamimidoyl)phenyl)carbamoyl)-4-vinylphenyl)picolinate] | A (A = 0-1,000 ng/mL)
C=Cc1cc(C(=O)Nc2ccc(C(=N)NC(=O)OCC(O)CO)cc2)c(-c2ccc(C(=O)NCC3CC3)nc2C(=O)OC(C)OC(=O)OC(C)C)cc1OC (stereo not drawn) [Compound 84a, 1-((isopropoxycarbonyl)oxy)ethyl 6-((cyclopropylmethyl)carbamoyl)-3-(2-((4-(N-((2,3-dihydroxypropoxy)carbonyl)carbamimidoyl)phenyl)carbamoyl)-5-methoxy-4-vinylphenyl)picolinate] | A (A = 0-1,000 ng/mL)
C=Cc1cc(C(=O)Nc2ccc(C(=N)NC(=O)OCCCCCC)cc2)c(-c2ccc(C(=O)NCC3CC3)nc2C(=O)OC(C)OC(=O)N(C)C)cc1OC (stereo not drawn) [Compound 90d, 1-((dimethylcarbamoyl)oxy)ethyl 6-((cyclopropylmethyl)carbamoyl)-3-(2-((4-(N-((hexyloxy)carbonyl)carbamimidoyl)phenyl)carbamoyl)-5-methoxy-4-vinylphenyl)picolinate] | A (A = 0-1,000 ng/mL)
C=Cc1cc(C(=O)Nc2ccc(C(=N)NC(=O)OCc3oc(=O)oc3C)cc2)c(-c2ccc(C(=O)NCC3CC3)nc2C(=O)OC(C)OC(=O)C(C)C)cc1OC (stereo not drawn) [Compound 117b, 1-(isobutyryloxy)ethyl 6-((cyclopropylmethyl)carbamoyl)-3-(5-methoxy-2-((4-(N-(((5-methyl-2-oxo-1,3-dioxol-4-yl)methoxy)carbonyl)carbamimidoyl)phenyl)carbamoyl)-4-vinylphenyl)picolinate] | B (B = 1,001-10,000 ng/mL)

Same assay, conditions: single oral dose 10 mg/kg, fasted male Sprague Dawley rats; plasma analyzed for the parent compound; study duration 12 h

SMILES | AUC0-last hour (area under the curve)
C=Cc1cc(C(=O)Nc2ccc(C(=N)N)cc2)c(-c2ccc(C(=O)NCC3CC3)nc2C(=O)OCOC(=O)OC(C)C)cc1OC [Compound 14d, ((isopropoxycarbonyl)oxy)methyl 3-(2-((4-carbamimidoylphenyl)carbamoyl)-5-methoxy-4-vinylphenyl)-6-((cyclopropylmethyl)carbamoyl)picolinate] | A (A = 0-1,000 ng/mL)
